Data on two compounds can be found in ChEMBL document CHEMBL3352120, “Enantioselective induction of SIRT1 gene by syringaresinol from Panax ginseng berry and Acanthopanax senticosus Harms stem” (Bioorg Med Chem Lett, 2015).

pKd: −log10 of the molar value. Activity calls are given as the source filed them. No cut-off for these calls is given here.

Data set [1] deals with T1, Forkhead box protein O3 (Homo sapiens, UniProt O43524). As to the kind of experiment: Binding affinity to His-tagged FOXO3a (unknown origin) by SPR analysis. In general terms: SPR reads the build-up and loss of mass on a sensor chip optically.
T1 sequence (O43524 whole entry): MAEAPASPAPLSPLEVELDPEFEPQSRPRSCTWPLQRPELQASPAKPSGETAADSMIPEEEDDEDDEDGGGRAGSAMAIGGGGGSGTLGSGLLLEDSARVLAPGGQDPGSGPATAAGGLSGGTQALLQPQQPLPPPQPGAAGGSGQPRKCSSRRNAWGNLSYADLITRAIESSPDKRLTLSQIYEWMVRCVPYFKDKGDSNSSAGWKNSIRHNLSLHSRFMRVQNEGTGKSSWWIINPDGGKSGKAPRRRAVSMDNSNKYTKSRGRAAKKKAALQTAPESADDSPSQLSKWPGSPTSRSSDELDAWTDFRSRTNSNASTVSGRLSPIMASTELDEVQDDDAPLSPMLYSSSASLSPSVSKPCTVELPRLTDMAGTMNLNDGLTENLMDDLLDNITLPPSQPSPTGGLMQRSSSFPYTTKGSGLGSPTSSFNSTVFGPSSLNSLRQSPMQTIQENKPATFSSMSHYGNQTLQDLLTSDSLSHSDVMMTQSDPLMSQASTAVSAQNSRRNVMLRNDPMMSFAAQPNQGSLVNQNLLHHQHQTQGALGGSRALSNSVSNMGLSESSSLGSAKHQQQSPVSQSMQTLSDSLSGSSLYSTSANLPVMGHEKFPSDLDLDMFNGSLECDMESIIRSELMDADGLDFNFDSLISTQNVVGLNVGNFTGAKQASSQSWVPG
The test system of data set [2] is HUVEC. As to the kind of experiment: Induction of SIRT1 mRNA expression in HUVEC at 5 to 100 uM after 24 hrs by luciferase reporter gene assay relative to untreated control. Format: functional, cell-based. The note with it: Homo sapiens.
The target of data set [3] is T1, Forkhead box protein O3. As to the kind of experiment: Induction of FOXO3a binding to SIRT1 in HUVEC at 50 uM after 24 hrs by chromatin immunoprecipitation assay.
In data set [4] the test system is HUVEC. The experiment in a line: Cytotoxicity against HUVEC assessed as cell viability at 5 to 300 uM after 24 hrs by MTT assay. The class given is cell-based. The settings on record: human. (Tetrazolium assays rely on reduction of a dye to a coloured formazan, in cell work by metabolically active cells.)
The test system of data set [5] is HUVEC. As to the kind of experiment: Induction of SIRT1 mRNA expression in HUVEC at 5 to 100 uM by quantitative RT-PCR analysis. The class given is functional, cell-based. The settings on record: Homo sapiens.
The test system of data set [6] is HUVEC. As to the kind of experiment: Induction of SIRT1 mRNA expression in HUVEC after 24 hrs by luciferase reporter gene assay relative to untreated control. The class given is functional, cell-based. The note with it: Homo sapiens.
The test system of data set [7] is HUVEC. The experiment in a line: Induction of SIRT1 mRNA expression in HUVEC by quantitative RT-PCR analysis. The class given is functional, cell-based. The settings on record: Homo sapiens.

As to `COc1cc([C@@H]2OC[C@@H]3[C@H]2CO[C@H]3c2cc(OC)c(O)c(OC)c2)cc(OC)c1O`, the result in data set [1], in data set [2], in data set [3] and in data set [5] was inactive. The Activity result in data set [4] is given as “Non-toxic”.
For orientation: pKd means the negative decadic logarithm of the Kd, by convention in mol/L. A lower pKd goes with a large Kd. `COc1cc([C@H]2OC[C@H]3[C@@H]2CO[C@@H]3c2cc(OC)c(O)c(OC)c2)cc(OC)c1O` [SYRINGARESINOL] gave a pKd in data set [1] of 2.76. For the same compound, the result in data set [3] was Active. For the same compound, the Activity result in data set [6] was “Dose-dependent effect”; in data set [4], “Non-toxic”; in data set [7], “Dose-dependent effect”.
